According to patent US20110081315A1, “NOVEL MACROCYCLIC INHIBITORS OF HEPATITIS C VIRUS REPLICATION” (INTERMUNE, INC., priority 2009, published 2011):
Where two headings read alike, the source gives them in different places.

Tests used:
[1] = target: NS3/NS4 complexes (Hepatitis C virus genotype 1a, UniProt P27958); assay: NS3/NS4 inhibition assay (IC50); format: biochemical; details: NS3/NS4 activity; 23° C., 25 μM NS4A peptide
In short: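 NS3/NS4 protease complexes were formed and compound inhibitory concentrations (IC50) measured at ambient temperature (23° C.) in 50 mM Tris-HCl, pH 7.5, with 15% glycerol, 0.6 mM LDAO, 25 μM NS4A peptide and 10 mM DTT. Replicon EC50 values come from a standard HCV replicon cell assay.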

[2] = system: hepatitis C replicon; assay: hepatitis C replicon EC50 assay; format: cell-based; details: Hepatitis C virus
In short: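 First, NS3 and NS4 are complexed; test compounds are then titrated against the complex at room temperature (23° C.) in Tris-HCl buffer, pH 7.5, supplemented with glycerol (15%), LDAO (0.6 mM), DTT (10 mM) and NS4A peptide (25 μM) to give IC50. Separately, replicon cells give EC50.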

[3] = hepatitis C replicon, read-out: EC50

Sequence of NS3/NS4 complexes (P27958 1027-1657, one chain of several): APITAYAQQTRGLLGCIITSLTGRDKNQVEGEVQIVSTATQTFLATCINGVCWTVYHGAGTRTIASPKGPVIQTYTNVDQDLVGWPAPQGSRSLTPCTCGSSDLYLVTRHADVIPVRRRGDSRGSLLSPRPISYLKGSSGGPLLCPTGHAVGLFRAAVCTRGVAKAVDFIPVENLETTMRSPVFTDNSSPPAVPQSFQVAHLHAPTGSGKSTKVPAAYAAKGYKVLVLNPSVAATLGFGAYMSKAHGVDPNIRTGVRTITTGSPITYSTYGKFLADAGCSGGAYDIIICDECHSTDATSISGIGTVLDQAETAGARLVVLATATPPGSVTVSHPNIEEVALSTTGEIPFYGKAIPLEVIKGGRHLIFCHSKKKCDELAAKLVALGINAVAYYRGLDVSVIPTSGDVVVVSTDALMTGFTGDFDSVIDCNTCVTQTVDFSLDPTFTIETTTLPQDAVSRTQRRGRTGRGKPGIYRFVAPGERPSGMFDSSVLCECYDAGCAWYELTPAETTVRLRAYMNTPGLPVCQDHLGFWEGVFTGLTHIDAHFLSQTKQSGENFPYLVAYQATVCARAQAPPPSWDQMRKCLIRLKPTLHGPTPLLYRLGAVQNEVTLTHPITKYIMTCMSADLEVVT

How did the IC50 [1] turn out when CC(C)n1c(O[C@@H]2C[C@H]3C(=O)N[C@]4(C(=O)NS(=O)(=O)C5(C)CC5)C[C@H]4/C=C\CCCCC[C@H](Nc4ccccc4)C(=O)N3C2)nc2c(-c3ccc(C#N)cc3)cccc21 [Compound 240] was run?
The IC50 was under 0.01 µM.

What about the EC50 [2, 3] of the same molecule?
The EC50 was 0.01 to 0.1 µM.

How did the IC50 [1] turn out when COc1ccc(-c2cccc3c2nc(O[C@@H]2C[C@H]4C(=O)N[C@]5(C(=O)NS(=O)(=O)N(C)C)C[C@H]5/C=C\CCCCC[C@H](NC(=O)OC(C)(C)C)C(=O)N4C2)n3C(C)C)cn1 [Compound 1739] was run?
Its IC50 is under 0.01 µM.

And the EC50 [2, 3]?
Its EC50 is 0.01 to 0.1 µM.

How did the IC50 [1] turn out when COc1ccc2c(O[C@@H]3C[C@H]4C(=O)N[C@]5(C(=O)NS(=O)(=O)C6(C)CC6)C[C@H]5/C=C\CCCCC[C@H](Nc5cccc(C(=O)N6CCN(c7ncccn7)CC6)c5)C(=O)N4C3)cc(-c3nc(C(C)C)cs3)nc2c1C [Compound 125] was run?
The IC50 was under 0.01 µM.

What about the EC50 [2, 3] of the same molecule?
Its EC50 is under 0.01 µM.

Which IC50 [1] does the source give for CN(C)S(=O)(=O)NC(=O)[C@@]12C[C@H]1/C=C\CCCCC[C@H](NC(=O)OC(C)(C)C)C(=O)N1C[C@H](Oc3ccc4c(ccn4C)c3)C[C@H]1C(=O)N2 [Compound 701] here?
The IC50 was under 0.01 µM.

And the EC50 [2, 3]?
Its EC50 is over 0.1 µM.

Which IC50 [1] does the source give for CC(C)n1c(O[C@@H]2C[C@H]3C(=O)N[C@]4(C(=O)NS(=O)(=O)C5(C)CC5)C[C@H]4/C=C\CCCCC[C@H](NC(=O)OC(C)(C)C)C(=O)N3C2)nc2c(-c3nc(-c4ccccc4Cl)cs3)cccc21 [Compound 1714] here?
Its IC50 is under 0.01 µM.

What about the EC50 [2, 3] of the same molecule?
Its EC50 is 0.01 to 0.1 µM.

For CC(C)n1c(O[C@@H]2C[C@H]3C(=O)N[C@]4(C(=O)NS(=O)(=O)N(C)C)C[C@H]4/C=C\CCCCC[C@H](NC(=O)OC(C)(C)C)C(=O)N3C2)nc2c(C(=O)N(C)C)cccc21 [Compound 279], which IC50 [1] is on record?
The IC50 was under 0.01 µM.

And the EC50 [2, 3]?
The EC50 was over 0.1 µM.

Which results are given for CC(C)n1c(O[C@@H]2C[C@H]3C(=O)N[C@]4(C(=O)NS(=O)(=O)C5(C)CC5)C[C@H]4/C=C\CCCCC[C@H](NC(=O)OC(C)(C)C)C(=O)N3C2)nc2c(-c3nc(Cc4ccccc4F)cs3)cccc21 [Compound 1720]?
IC50 [1]: < 0.01 µM; EC50 [2, 3]: < 0.01 µM

For CC1(S(=O)(=O)NC(=O)[C@@]23C[C@H]2/C=C\CCCCC[C@H](Nc2ccccc2)C(=O)N2C[C@H](n4nc5ccccc5n4)C[C@H]2C(=O)N3)CC1 [Compound 1501], which IC50 [1] is on record?
The IC50 was 0.01 to 0.1 µM.

And the EC50 [2, 3]?
Its EC50 is over 0.1 µM.

What does the source list for CCn1c(O[C@@H]2C[C@H]3C(=O)N[C@]4(C(=O)NS(=O)(=O)N(C)C)C[C@H]4/C=C\CCCCC[C@H](NC(=O)OC(C)(C)C)C(=O)N3C2)nc2c(-c3nc(C(C)C)c(C)s3)cccc21 [Compound 1432]?
IC50 [1]: < 0.01 µM; EC50 [2, 3]: 0.01 to 0.1 µM

For CC(C)n1c(O[C@@H]2C[C@H]3C(=O)N[C@]4(C(=O)NS(=O)(=O)N(C)C)C[C@H]4/C=C\CCCCC[C@H](NC(=O)OC(C)(C)C)C(=O)N3C2)nc2c(-c3ccccc3)cccc21 [Compound 210], which IC50 [1] is on record?
Its IC50 is under 0.01 µM.

And the EC50 [2, 3]?
Its EC50 is under 0.01 µM.

Which IC50 [1] does the source give for CC(C)n1c(O[C@@H]2C[C@H]3C(=O)N[C@]4(C(=O)NS(=O)(=O)N(C)C)C[C@H]4/C=C\CCCCC[C@H](NC(=O)OC(C)(C)C)C(=O)N3C2)nc2c(-c3nc(Cc4cc(F)cc(F)c4)cs3)cccc21 [Compound 1756] here?
Its IC50 is under 0.01 µM.

What about the EC50 [2, 3] of the same molecule?
The EC50 was 0.01 to 0.1 µM.

Which results are given for CCc1nc2ccccc2nc1O[C@@H]1C[C@H]2C(=O)N[C@]3(C(=O)NS(=O)(=O)N(C)C)C[C@H]3/C=C\CCCCC[C@H](NC(=O)OC(C)(C)C)C(=O)N2C1 [Compound 302]?
IC50 [1]: < 0.01 µM; EC50 [2, 3]: < 0.01 µM

COc1ccc2c(O[C@@H]3C[C@H]4C(=O)N[C@]5(C(=O)NS(=O)(=O)C6(C)CC6)C[C@H]5/C=C\CCCCC[C@H](Nc5cccc(C(=O)N6CCNCC6)c5)C(=O)N4C3)cc(-c3nc(C(C)C)cs3)nc2c1C [Compound 107] was tested. Which IC50 [1] did it give?
The IC50 was under 0.01 µM.

What about the EC50 [2, 3] of the same molecule?
The EC50 was under 0.01 µM.

What does the source list for CCNC(=O)c1cccc2c1nc(O[C@@H]1C[C@H]3C(=O)N[C@]4(C(=O)NS(=O)(=O)N(C)C)C[C@H]4/C=C\CCCCC[C@H](NC(=O)OC(C)(C)C)C(=O)N3C1)n2C(C)C [Compound 280]?
IC50 [1]: < 0.01 µM; EC50 [2, 3]: < 0.01 µM

What does the source list for CC(C)n1c(O[C@@H]2C[C@H]3C(=O)N[C@]4(C(=O)NS(=O)(=O)N(C)C)C[C@H]4/C=C\CCCCC[C@H](NC(=O)OC(C)(C)C)C(=O)N3C2)nc2c(NC(=O)OCCc3ccccc3)cccc21 [Compound 1429]?
IC50 [1]: < 0.01 µM; EC50 [2, 3]: < 0.01 µM

For CC(C)n1c(O[C@@H]2C[C@H]3C(=O)N[C@]4(C(=O)NS(=O)(=O)C5(C)CC5)C[C@H]4/C=C\CCCCC[C@H](Nc4ccc(F)c(C(F)(F)F)c4)C(=O)N3C2)nc2cncnc21 [Compound 502], which IC50 [1] is on record?
Its IC50 is under 0.01 µM.

What about the EC50 [2, 3] of the same molecule?
The EC50 was 0.01 to 0.1 µM.

Which IC50 [1] does the source give for COc1ccc2c(O[C@@H]3C[C@H]4C(=O)N[C@]5(C(=O)NS(=O)(=O)C6(C)CC6)C[C@H]5/C=C\CCCCC[C@H](Nc5ccc(N)cc5)C(=O)N4C3)cc(-c3nc(C(C)C)cs3)nc2c1C [Compound 101] here?
The IC50 was under 0.01 µM.

What about the EC50 [2] of the same molecule?
The EC50 was 0.01 to 0.1 µM.

How did the IC50 [1] turn out when CC(C)n1c(O[C@@H]2C[C@H]3C(=O)N[C@]4(C(=O)NS(=O)(=O)C5CC5)C[C@H]4/C=C\CCCCC[C@H](NC(=O)OC(C)(C)C)C(=O)N3C2)nc2cncnc21 [Compound 504] was run?
Its IC50 is under 0.01 µM.

What about the EC50 [2, 3] of the same molecule?
Its EC50 is 0.01 to 0.1 µM.

What does the source list for Cc1ccc(-c2csc(-c3cccc4c3nc(O[C@@H]3C[C@H]5C(=O)N[C@]6(C(=O)NS(=O)(=O)N(C)C)C[C@H]6/C=C\CCCCC[C@H](NC(=O)OC(C)(C)C)C(=O)N5C3)n4C(C)C)n2)c(C)c1 [Compound 1754]?
IC50 [1]: < 0.01 µM; EC50 [2, 3]: 0.01 to 0.1 µM

What does the source list for COc1ccc2c(O[C@@H]3C[C@H]4C(=O)N[C@]5(C(=O)NS(=O)(=O)C6(C)CC6)C[C@H]5/C=C\CCCCC[C@H](Nc5cccc(C(=O)N6CCN(C(=O)c7ccco7)CC6)c5)C(=O)N4C3)cc(-c3nc(C(C)C)cs3)nc2c1C [Compound 121]?
IC50 [1]: < 0.01 µM; EC50 [2, 3]: 0.01 to 0.1 µM

What does the source list for Cc1ccc(-c2csc(-c3cccc4c3nc(O[C@@H]3C[C@H]5C(=O)N[C@]6(C(=O)NS(=O)(=O)C7(C)CC7)C[C@H]6/C=C\CCCCC[C@H](NC(=O)OC(C)(C)C)C(=O)N5C3)n4C(C)C)n2)c(C)c1 [Compound 1717]?
IC50 [1]: < 0.01 µM; EC50 [2, 3]: 0.01 to 0.1 µM

Which IC50 [1] does the source give for Cc1ccccc1-c1csc(-c2cccc3c2nc(O[C@@H]2C[C@H]4C(=O)N[C@]5(C(=O)NS(=O)(=O)C6(C)CC6)C[C@H]5/C=C\CCCCC[C@H](NC(=O)OC(C)(C)C)C(=O)N4C2)n3C(C)C)n1 [Compound 1712] here?
The IC50 was under 0.01 µM.

And the EC50 [2, 3]?
The EC50 was under 0.01 µM.

How did the IC50 [1] turn out when CC(C)n1c(O[C@@H]2C[C@H]3C(=O)N[C@]4(C(=O)NS(=O)(=O)C5(C)CC5)C[C@H]4/C=C\CCCCC[C@H](Nc4ccccc4)C(=O)N3C2)nc2c(-c3cccc(C#N)c3)cccc21 [Compound 241] was run?
Its IC50 is under 0.01 µM.

What about the EC50 [2, 3] of the same molecule?
The EC50 was 0.01 to 0.1 µM.

What does the source list for CC(C)n1c(O[C@@H]2C[C@H]3C(=O)N[C@]4(C(=O)NS(=O)(=O)N(C)C)C[C@H]4/C=C\CCCCC[C@H](NC(=O)OC(C)(C)C)C(=O)N3C2)nc2c(NC(N)=O)cccc21 [Compound 1425]?
IC50 [1]: < 0.01 µM; EC50 [2, 3]: 0.01 to 0.1 µM

For CC(C)n1c(O[C@@H]2C[C@H]3C(=O)N[C@]4(C(=O)NS(=O)(=O)C5CC5)C[C@H]4/C=C\CCCCC[C@H](NC(=O)OC(C)(C)C)C(=O)N3C2)nc2c(-c3nc(-c4ccccc4)cs3)cccc21 [Compound 221], which IC50 [1] is on record?
The IC50 was under 0.01 µM.

What about the EC50 [2, 3] of the same molecule?
Its EC50 is under 0.01 µM.

Which results are given for CC(C)n1c(O[C@@H]2C[C@H]3C(=O)N[C@]4(C(=O)NS(=O)(=O)N(C)C)C[C@H]4/C=C\CCCCC[C@H](NC(=O)OC(C)(C)C)C(=O)N3C2)nc2c(C(=O)Nc3ccccc3)cccc21 [Compound 282]?
IC50 [1]: < 0.01 µM; EC50 [2]: 0.01 to 0.1 µM

For CC(C)n1c(O[C@@H]2C[C@H]3C(=O)N[C@]4(C(=O)NS(=O)(=O)N(C)C)C[C@H]4/C=C\CCCCC[C@H](NC(=O)OC(C)(C)C)C(=O)N3C2)nc2c(-c3nc(C(C)(C)C)cs3)cccc21 [Compound 232], which IC50 [1] is on record?
Its IC50 is under 0.01 µM.

And the EC50 [2, 3]?
Its EC50 is 0.01 to 0.1 µM.
